Experimental data published in US20180049433A1, “SEMIOCHEMICAL COMPOSITIONS FOR THE PREVENTION OF HEMATOPHAGOUS DIPTERA INSECTS FROM LANDING AND BITING ANIMALS” (INSTITUTE DE RECHERCHE EN SEMIOCHIMIE ET ETHOLOGIE APPLIQUEE, priority 2015, published 2018).
Where “and” joins values, the source holds several entries; their conditions need not be identical. Identical values can stand only once. Like-named read-outs stand apart in the source and are kept apart here.

Legend:
[1] = test system: Culex pipiens quinquefasciatus; experiment: Mosquito engorgement test on treated shaved guinea pigs, Culex pipiens quinquefasciatus; format: in vivo
Text: The tests were undertaken using experimental cages, which were composed of a plastic frame having the dimensions 29×29×29 cm. A sleeve of mosquito netting was placed over the cage. The sleeves of the netting were closed with rubber bands thus preventing light from entering the cages.
In each cage the mosquitoes had at their disposition a little water placed in a jar.
The mosquitoes that were used in this experiment were Culex pipiens quinquefasciatus. In each cage 50 female mosquitoes were introduced.
The day before the test 50 […] female mosquitoes were introduced into their experimental cage. The mosquitoes were deprived of a source of sugar at least twelve hours before the test.
The mosquitoes were collected by suction on the walls of the experimental cage with a mouth vacuum that was connected to a suction pump. To avoid errors, the mosquitoes were removed and introduced in lots of five. The sex was determined by observation of their antennas, since the male's antennas are more feathery.
Once the mouth vacuum was empty in the experimental cage the health of the mosquitoes was verified. To be used in the experiment, the mosquitoes had to be able to fly. Before the test the dead mosquitoes or those mosquitoes that could not fly were replaced with healthy ones.
Prior to starting the experiment the mosquitoes were tested to determine if the mosquitoes were ready to bite. This was verified by introducing a hand washed with soap and without any smell in the experimental cage. If more than three mosquitoes posed on the hand voluntarily within a delay of 30 seconds, then it was deemed that the mosquitoes were ready to bite. The hand was withdrawn when the three mosquitoes posed on it or when the 30 second time period was up. This test was repeated every minute for a maximum of 5 minutes, until a positive result was obtained. If no positive result was obtained the experiment was postponed.
A herd of guinea pigs males and females aging from 4 months to 3 years were used in the experiments. The guinea pig was anesthetized by injecting 1 mg/kg (live weight) of Zoletil® 20 in the thigh. A thin layer of Ocryl® gel was placed on the eyes of the guinea pigs.
The abdominal zone of the guinea pigs were carefully shaved from the teats to the base of the thorax. The area that was shaved was 8 cm from the base of the thorax to the teats by 6 cm from left to right of the guinea pig. This was done using a transparent template.
After shaking the sprayer containing the insect bite inhibiting semiochemical, each guinea pig was sprayed 3 times (0.5 ml total) in the center of the shaved region. After the first administration, the product was spread with the little finger, in which the hand is covered by a vinyl glove, towards the teats. After the second administration by spraying the product was spread with the gloved little finger towards the thorax. After the third administration by spraying the product was spread over the entire shaved surface. The product was permitted to dry for a period of five minutes.
At the bottom of the experimental cage a transparent sheet was placed in which a rectangle of 7 cm by 5 cm was cut in the center. Another cover sheet cut with the same dimensions as the transparent sheet was made and the two rectangles were superimposed on one another and stapled together with 8 staples.
The shaved zone of the guinea pig was centered over the rectangular transparent sheet and the guinea pigs were exposed to the mosquitoes for 30 minutes. See, FIGS. 2 and 3.
At the end of 30 minutes, the mosquitoes were recovered by mouth vacuum. They were then enclosed in a plastic bag that contained a paper soaked with ethyl acetate. After 3 minutes the mosquitoes were aligned on a strip of scotch tape that was labeled with the number of the experiment, the date, the name of the guinea pig in the experiment and the treatment that was applied.
Each treatment was tested with a control.

[2] = test system: insects; conditions: cited from earlier work
[3] = test system: Culex pipiens quinquefasciatus; experiment: Mosquito engorgement test on treated cats, Culex pipiens quinquefasciatus; format: in vivo; conditions: cat
Procedure: Other tests were performed on guinea pigs and cats using combinations of D, which is 3-cyclopentyl propanoic acid, F, which is 3-cyclohexyl propanoic acid, X, which is 3-cyclohexyl 2-methyl propanoic acid and W, which is 3-cyclopentyl 2-methyl propanoic acid.
The same experiment was conducted in the same manner as in Example 4 using guinea pigs, chickens and cats. The mosquitoes used in this experiment were Culex sp, Aedes sp and Anopheles.
The procedure that was followed was that in Example 4, except that cats (Felis domesticus) were tested instead of guinea pigs. The mosquitoes that were used in this experiement were Culex pipiens quinquefasciatus and Aedes aegypti.

[4] = guinea pig, dose 31 μg/cm^2 (Table 7)
[5] = guinea pig, solution 0.3%, dose 31 μg/cm^2, 30 min exposure
[6] = guinea pig, solution 3.0%, dose 31 μg/cm^2, 30 min exposure
[7] = guinea pig, solution 0.3%, dose 33 μg/cm^2, 30 min exposure
[8] = solution 3.0%, dose 324 μg/cm^2, 30 min exposure
[9] = guinea pig, solution 0.1%, dose not given, 30 min exposure

CC(CC1CCCC1)C(=O)O (stereo not shown) [methylated 3-CPP, 3-cyclopentyl 2-methyl propanoic acid]
% efficacy [1, 4]: 89%

CCN(CC)C(=O)c1cccc(C)c1 [DEET, N,N-diethyl-meta-toluamide]
protection time ([2]; encapsulated DEET): up to 10 hours | protection time ([2]; product containing 4.75% of DEET): one and a half | protection time ([2]; product containing 23.8% of DEET): five

O=C(O)CC1CCCCC1 [CHA, cyclohexyl acetic acid]
% bites tested [1, 5]: 8% | % efficacy [1, 5]: 86%

pinene [reference compound]
% bites tested [1, 5]: 23% | % efficacy [1, 5]: 30%

C=C(C)[C@H]1CC=C(C)CC1 [limonene, reference compound]
% bites tested [1, 5]: 58% | % efficacy [1, 5]: −19%

CC(C)=CCC/C(C)=C/CO [geraniol, reference compound]
% bites tested [1, 5]: 25% | % efficacy [1, 5]: 58% | % bites tested [1, 6]: 0% | % efficacy [1, 6]: 100%

O=C(O)CCC1CCCC1 [3-CPP, 3-cyclopentyl propionic acid]
% bites tested [1, 5]: 4% and 5% and 1% and 11% | % efficacy [1, 5]: 94% and 85% and 91% and 82% | % bites tested [1, 7]: 0% | % efficacy [1, 7]: 100% | % bites tested [1, 8]: 0% | % efficacy [1, 8]: 100% | % efficacy ([3]; 3.0%, dose 314 μg/cm^2): 100% | Number of bites of the solution used ([3]; 3.0%, dose 314 μg/cm^2): 0% | % efficacy ([3]; dose 32 μg/cm^2): 94% and 100% | % efficacy ([3]; dose 324 μg/cm^2): 100%

CC(CC1CCCCC1)C(=O)O (stereo not shown) [methylated 3-CHP, 3-cyclohexyl 2-methyl propanoic acid]
% efficacy [1, 4]: 67%

CC1=CC[C@@H](C(C)(C)O)CC1 [alpha terpineol, reference compound]
% bites tested [1, 5]: 32% | % efficacy [1, 5]: 48%

CC12CCC(CC1)C(C)(C)O2 [eucalyptol, reference compound]
% bites tested [1, 5]: 43% | % efficacy [1, 5]: −14%

methylated cyclohexyl acetic acid [methylated CHA]
% efficacy [1, 4]: 77%

Cc1ncc(CO)c(CO)c1O [Vit. B6, reference compound]
% bites tested [1, 9]: 87% | % efficacy [1, 9]: −19%

Cc1ncc(C[n+]2csc(CCO)c2C)c(N)n1 [Vit. B1, reference compound]
% bites tested [1, 9]: 93% | % efficacy [1, 9]: 2%
